Source: patent US20250002450A1, “CATIONIC STEROID COMPOUNDS, METHOD OF OBTAINING THEREOF, FORMULATIONS COMPRISING THEREOF AND THEIR USES” (UNIVERSIDADE DO PORTO, priority 2021, published 2025)
≈ marks a conversion by molar mass, not a printed value.

Columns and labels:
Experiment in all cases: Antibacterial MIC/MBC (broth microdilution)
S. aureus 66/1 (MRSA) = format: cell-based, Staphylococcus aureus; conditions: Staphylococcus aureus; for MBC: read-out: MBC; for MIC: read-out: MIC
Procedure, shortened: (§1)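 Two-fold serial dilutions in Mueller-Hinton broth 2 (0.062-64 μg/mL), inoculum about 5×10^5 CFU/mL, 20 h at 37 degrees C. MIC was the lowest concentration preventing visible growth; MBC was the lowest concentration killing 99.9% of the inoculum after plating wells without growth on MH agar.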

P. aeruginosa 33b (PDR) = format: cell-based, Pseudomonas aeruginosa; conditions: Pseudomonas aeruginosa, P. aeruginosa 33b (PDR); for MBC: read-out: MBC; for MIC: read-out: MIC
Procedure, shortened: as §1

E. faecalis B3/101 (VRE) = format: cell-based, Enterococcus faecalis; conditions: Enterococcus faecalis, E. faecalis B3/101 (VRE); for MBC: read-out: MBC; for MIC: read-out: MIC
Procedure, shortened: as §1

[1] = test system: Enterococcuss faecalis ATCC 29212; format: cell-based, Enterococcus faecalis; conditions: for MBC / MIC: Enterococcus faecalis, ATCC29212, Enterococcuss faecalis ATCC 29212; for MBC: read-out: MBC; for MIC: read-out: MIC
Procedure, shortened: as §1

E. coli SA/2 (ESBL) = format: cell-based, Escherichia coli; conditions: Escherichia coli
Procedure, shortened: as §1

[2] = test system: E. coli 2252 (COL-resistant); format: cell-based, Escherichia coli; conditions: Escherichia coli, E. coli 2252 (COL-resistant); for MBC: read-out: MBC; for MIC: read-out: MIC
Procedure, shortened: as §1

[3] = test system: Streptococcuss pyogenes ATCC 19615; format: cell-based, Streptococcus pyogenes; conditions: for MBC / MIC: Streptococcus pyogenes, ATCC19615, Streptococcuss pyogenes ATCC 19615; for MBC: read-out: MBC; for MIC: read-out: MIC
Procedure, shortened: as §1

C. jejuni 4432 = format: cell-based, Campylobacter jejuni; conditions: for MBC / MIC: Campylobacter jejuni; for MBC: read-out: MBC; for MIC: read-out: MIC
C. jejuni P5/4 = format: cell-based, Campylobacter jejuni; conditions: Campylobacter jejuni; for MBC: read-out: MBC; for MIC: read-out: MIC
C. jejuni 4448 = format: cell-based, Campylobacter jejuni; conditions: for MBC / MIC: Campylobacter jejuni; for MBC: read-out: MBC; for MIC: read-out: MIC
C. jejuni 4433 = format: cell-based, Campylobacter jejuni; conditions: for MBC / MIC: Campylobacter jejuni; for MBC: read-out: MBC; for MIC: read-out: MIC
[4] = test system: Acinetobacter baumannii ATCC 19606; format: cell-based; conditions: ATCC19606, Acinetobacter baumannii ATCC 19606; for MBC: read-out: MBC; for MIC: read-out: MIC
Procedure, shortened: as §1

[5] = test system: Staphylococcus aureus ATCC 29213; format: cell-based; conditions: for MBC: ATCC29213, read-out: MBC; for MIC: ATCC29213, read-out: MIC
Procedure, shortened: as §1

[6] = test system: Listonella anguilarum ATCC 1924; format: cell-based; conditions: Listonella anguilarum ATCC 1924; for MBC: read-out: MBC; for MIC: read-out: MIC
Procedure, shortened: as §1

[7] = test system: Campylobacter jejuni ATCC 33560; format: cell-based; conditions: for MBC / MIC: ATCC33560, Campylobacter jejuni ATCC 33560; for MBC: read-out: MBC; for MIC: read-out: MIC

SMILES | MBC (S. aureus 66/1 (MRSA)) [µg/mL] | MIC (S. aureus 66/1 (MRSA)) [µg/mL] | MBC (P. aeruginosa 33b (PDR)) [µg/mL] | MIC (P. aeruginosa 33b (PDR)) [µg/mL] | MBC (E. faecalis B3/101 (VRE)) [µg/mL] | MIC (E. faecalis B3/101 (VRE)) [µg/mL] | MBC [1] [µg/mL] | MIC [1] [µg/mL] | MBC (E. coli SA/2 (ESBL)) [µg/mL] | MIC (E. coli SA/2 (ESBL)) [µg/mL] | MBC [2] [µg/mL] | MIC [2] [µg/mL] | MBC [3] [µg/mL] | MIC [3] [µg/mL] | MBC (C. jejuni 4432) [µg/mL] | MIC (C. jejuni 4432) [µg/mL] | MBC (C. jejuni P5/4) [µg/mL] | MIC (C. jejuni P5/4) [µg/mL] | MBC (C. jejuni 4448) [µg/mL] | MIC (C. jejuni 4448) [µg/mL] | further results
C[C@H](CCC(=O)N1CCOCC1)[C@H]1CC[C@H]2[C@@H]3CC[C@@H]4C[C@H](O)CC[C@]4(C)[C@H]3C[C@H](O)[C@]12C [Compound 3, (R)-4-((3R,5R,8R,9S,10S,12S,13R,14S,17R)-3,12-dihydroxy-10,13-dimethylhexadecahydro-1H-cyclopenta[a]phenanthren-17-yl)-1-morpholinopentan-1-one] | > 64 | > 64 | > 64 | > 64 | > 64 | > 64 | > 64 | > 64 | > 64 | > 64 | > 64 | > 64 | > 64 | > 64 | > 64 | > 64 | > 64 | > 64 | > 64 | > 64 | MBC (C. jejuni 4433): > 64 µg/mL; MIC (C. jejuni 4433): > 64 µg/mL; MBC [4]: > 64 µg/mL; MIC [4]: > 64 µg/mL; MBC [5]: > 64 µg/mL; MIC [5]: > 64 µg/mL; MBC [6]: > 64 µg/mL; MIC [6]: > 64 µg/mL; MBC [7]: > 64 µg/mL; MIC [7]: > 64 µg/mL
C[C@H](CCC(=O)N1CCCCC1)[C@H]1CC[C@H]2[C@@H]3CC[C@@H]4C[C@H](O)CC[C@]4(C)[C@H]3C[C@H](O)[C@]12C [Compound 2, (R)-4-((3R,5R,8R,9S,10S,12S,13R,14S,17R)-3,12-dihydroxy-10,13-dimethylhexadecahydro-1H-cyclopenta[a]phenanthren-17-yl)-1-(piperidin-1-yl) pentan-1-one] | > 64 | 32 (≈ 69.6 µM) | > 64 | > 64 | > 64 | > 64 | > 64 | 32 (≈ 69.6 µM) | > 64 | > 64 | > 64 | > 64 | 32 (≈ 69.6 µM) | 32 (≈ 69.6 µM) | > 64 | 64 (≈ 139 µM) | > 64 | > 64 | > 64 | > 64 | antibacterial activity (in words) ([1]; E. faecalis ATCC 29212): exhibited antimicrobial activity; antibacterial activity (in words) ([3]; S. pyogenes ATCC 19615): active; antibacterial activity (in words) (C. jejuni 4432): showed antimicrobial activity; antibacterial activity (in words) (C. jejuni 4448): showed antimicrobial activity; antibacterial activity (in words) (C. jejuni 4433): showed antimicrobial activity; MBC (C. jejuni 4433): > 64 µg/mL; MIC (C. jejuni 4433): > 64 µg/mL; MBC [4]: > 64 µg/mL; MIC [4]: > 64 µg/mL; MBC [5]: > 64 µg/mL; MIC [5]: 32 µg/mL (≈ 69.6 µM); MBC [6]: > 64 µg/mL; MIC [6]: > 64 µg/mL; MBC [7]: 64 µg/mL (≈ 139 µM); MIC [7]: 64 µg/mL (≈ 139 µM); antibacterial activity (in words) ([7]; C. jejuni ATCC 33560): showed antimicrobial activity
C[C@H](CCC(=O)N1CCN(C(=O)OC(C)(C)C)CC1)[C@H]1CC[C@H]2[C@@H]3CC[C@@H]4C[C@H](O)CC[C@]4(C)[C@H]3C[C@H](O)[C@]12C [Compound 5, tert-butyl 4-((R)-4-((3R,5R,8R,9S,10S,12S,13R,14S,17R)-3,12-dihydroxy-10,13-dimethylhexadecahydro-1H-cyclopenta[a]phenanthren-17-yl)pentanoyl)piperazine-1-carboxylate] | > 64 | 64 (≈ 114 µM) | > 64 | > 64 | > 64 | > 64 | > 64 | > 64 | > 64 | > 64 | > 64 | > 64 | > 64 | > 64 | > 64 | > 64 | > 64 | > 64 | > 64 | > 64 | MBC (C. jejuni 4433): > 64 µg/mL; MIC (C. jejuni 4433): > 64 µg/mL; MBC [4]: > 64 µg/mL; MIC [4]: > 64 µg/mL; MBC [5]: > 64 µg/mL; MIC [5]: 16 µg/mL (≈ 28.5 µM); MBC [6]: > 64 µg/mL; MIC [6]: > 64 µg/mL; MBC [7]: > 64 µg/mL; MIC [7]: > 64 µg/mL
